Literature values, collected in US7838561B2, “Method for preventing or treating cardiac hypertrophy” (Wisconsin Alumni Research Foundation, priority 2004, dated 2010).
“Also recorded” adds a separate entry of the source. Read-outs that look alike come from different tables or passages of the source.

Tests used:
[1] = target: T1, RARβ (Homo sapiens, UniProt P10826)
T1 sequence (P10826 1-455): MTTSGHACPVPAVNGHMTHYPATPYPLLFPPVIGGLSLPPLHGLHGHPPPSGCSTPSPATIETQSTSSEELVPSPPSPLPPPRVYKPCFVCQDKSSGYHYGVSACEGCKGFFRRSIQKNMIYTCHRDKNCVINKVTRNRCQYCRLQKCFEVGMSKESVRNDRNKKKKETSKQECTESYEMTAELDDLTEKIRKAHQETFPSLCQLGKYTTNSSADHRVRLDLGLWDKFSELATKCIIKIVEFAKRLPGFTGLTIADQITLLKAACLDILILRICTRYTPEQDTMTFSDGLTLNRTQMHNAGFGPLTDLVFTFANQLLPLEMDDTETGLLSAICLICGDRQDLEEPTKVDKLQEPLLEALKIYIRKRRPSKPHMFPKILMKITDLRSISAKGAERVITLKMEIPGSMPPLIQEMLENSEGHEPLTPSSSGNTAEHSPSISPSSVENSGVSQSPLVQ

[2] = target: T2, RARγ (Homo sapiens, UniProt P13631)
T2 sequence (P13631 1-454): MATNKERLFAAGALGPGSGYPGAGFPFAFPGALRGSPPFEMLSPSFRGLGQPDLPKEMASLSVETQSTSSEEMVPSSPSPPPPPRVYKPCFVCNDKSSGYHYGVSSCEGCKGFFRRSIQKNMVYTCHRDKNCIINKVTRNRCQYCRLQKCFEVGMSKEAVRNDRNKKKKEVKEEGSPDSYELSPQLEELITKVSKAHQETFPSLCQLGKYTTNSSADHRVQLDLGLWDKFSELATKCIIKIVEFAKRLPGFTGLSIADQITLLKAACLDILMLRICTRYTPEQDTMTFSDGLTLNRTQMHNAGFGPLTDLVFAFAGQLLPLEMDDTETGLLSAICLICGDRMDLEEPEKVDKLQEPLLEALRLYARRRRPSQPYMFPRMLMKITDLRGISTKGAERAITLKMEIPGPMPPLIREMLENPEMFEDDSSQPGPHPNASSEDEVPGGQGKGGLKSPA

[3] = target: T3, RARα (Homo sapiens, UniProt P10276)
T3 sequence (P10276 1-462): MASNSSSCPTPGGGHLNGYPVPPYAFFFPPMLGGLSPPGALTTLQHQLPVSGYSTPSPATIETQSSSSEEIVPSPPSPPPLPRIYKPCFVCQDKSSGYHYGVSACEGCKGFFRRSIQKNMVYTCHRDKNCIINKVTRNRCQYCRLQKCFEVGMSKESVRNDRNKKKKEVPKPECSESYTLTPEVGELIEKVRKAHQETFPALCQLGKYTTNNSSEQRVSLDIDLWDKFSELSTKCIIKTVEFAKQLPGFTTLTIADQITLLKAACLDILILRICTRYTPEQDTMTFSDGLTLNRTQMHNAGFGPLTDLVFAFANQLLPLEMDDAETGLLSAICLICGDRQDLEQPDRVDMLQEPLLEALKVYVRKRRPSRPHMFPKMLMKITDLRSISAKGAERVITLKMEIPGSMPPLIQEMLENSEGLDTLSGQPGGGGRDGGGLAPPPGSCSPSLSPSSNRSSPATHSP

[4] = tested on: human cervical cancer cell line ECE16-1
[5] = topical, 0, 1.44, 7.2, 36.0 μmol/kg/day, mice
[6] = tested on: RARs
[7] = tested on: mouse limb bud chondrocytes
[8] = tested on: prostate carcinoma cell lines
[9] = tested on: bone marrow granulocytic precursors; conditions: oral, 0.5 mg/kg/day for 10 days, mice
[10] = target: T1, RARβ; remark: listed apart in the source
[11] = target: T3, RARα; remark: listed apart in the source
[12] = target: T2, RARγ; remark: listed apart in the source
[13] = tested on: acute promyelocytic leukemia; conditions: RA triggers differentiation
[14] = tested on: RAR and RXR
[15] = tested on: nuclear retinoid receptors
[16] = in vivo
[17] = target: RBP (Homo sapiens, UniProt P02753)
[18] = tested on: testicular cells; conditions: rabbits, 2, 10, 50 mg/kg orally for 1 wk
[19] = 20 mg/kg/day, 7 days, subcutaneous, rats
[20] = tested on: gastrulation-stage zebrafish embryo
[21] = ip, 15 mg/kg/d
[22] = tested on: rabbit HIG-82 synovial fibroblasts; conditions: 0.01 to 10 μM
[23] = tested on: RARs; conditions: in vitro
[24] = tested on: AP-1
[25] = tested on: testicular cells
[26] = tested on: mammary epithelial cell; conditions: 1 μM

In the case of `Cc1ccc(C2=CCC(C)(C)c3ccc(C#Cc4ccc(C(=O)O)cc4)cc32)cc1` [AGN 193109], the “hormone action of RA in skin” value (later in development, single oral dose of 100 mg/kg) is listed as “suppresses the hormone action of RA in skin”, the placental transfer (pregnant mouse) is listed as “readily crosses the placenta” and the “antagonism of retinoid-specific events in craniofacial development” value (pregnant mouse, 1 mg/kg single oral dose) is listed as “sufficient to antagonize retinoid-specific events in craniofacial development”. For the same compound, the Kd [1] was 0.007 µM, the Kd [2] was 0.007 µM and the Kd [3] was 0.016 µM. For the same compound, the partial agonist activity [4] was “did not have partial agonist activity”, the “retinoid-mediated activities (proliferation, keratin & RARβ gene expression)” value ([4]; 10 nM, 100 nM) was “suppresses retinoid-mediated activities” and the “effect on TTNPB toxicity (cutaneous irritation, weight loss, mortality)” value [5] was “counteracts the toxicity symptoms”. The “Receptor Specificity” value [6] was “pan-RAR antagonist; also recorded: RARαβγ”.

In the case of `Cc1ccc(C2=CC(C)(C)Oc3c(Br)cc(C(=O)Nc4ccc(C(=O)O)c(F)c4)cc32)cc1` [AGN 194301], the “differentiation of limb bud chondrocytes, Sox9 induction” value ([7]; 1 μM) is given as “overcome RA signaling and permit the differentiation of mouse limb bud chondrocytes”, the Kd [1] is given as 0.32 µM and the Kd [2] is given as 7.25 µM. For the same compound, the Kd [3] was 0.003 µM and the “Receptor Specificity” value [6] was “RARα”.

For `CCc1ccc(C2=CC(C)(C)Sc3ccc(C#Cc4ccc(C(=O)O)cc4)cc32)cc1` [AGN 194310], the “differentiation of limb bud chondrocytes, Sox9 induction” value ([7]; 50 nM) is listed as “overcome RA signaling and permit the differentiation of mouse limb bud chondrocytes”, the Kd [1] is listed as 0.002 µM and the Kd [2] is listed as 0.005 µM. The Kd [3] was 0.003 µM, the “potency relative to all-trans-retinoic acid” value [8] was 12-22 times and the “frequency of bone marrow granulocytic precursors” value [9] was “sufficient to elevate the frequency of bone marrow granulocytic precursors”. For the same compound, the “signs of ill health or abnormal pathology” value [9] was “did not show signs of ill health or abnormal pathology” and the “Receptor Specificity” value [6] was “pan-RAR antagonist; also recorded: RARαβγ”.

For `CC1=C(/C=C/C(C)=C/C=C/C(C)=C/C(=O)O)C(C)(C)CCC1` [All-trans-retinoic acid], the “Receptor Specificity” value [6] is given as “RARαβγ”.

For `CC1(C)CC=C(c2cnc3ccccc3c2)c2cc(C(=O)Nc3ccc(C(=O)O)cc3)ccc21` [BMS 614], the “antagonism of RARβ transactivation” value [10] is listed as “at best modestly”, the “RARβ Kd” value [1] is listed as “not bound” and the “RARγ Kd” value [2] is listed as “not bound”. The Kd [3] was 0.0025 µM, the “agonist or antagonist action at RARα” value [11] was “antagonist” and the “molar excess to RA at which RARα transactivation is antagonised” value [11] was 100 fold. For the same compound, the “antagonism of RARγ transactivation” value [12] was “no antagonism” and the “Receptor Specificity” value [6] was “RARα”.

For `CC1(C)CC=C(c2ccccc2)c2cc(C(=O)Nc3ccc(C(=O)O)cc3)ccc21` [BMS 185411], the “activity in the acute promyelocytic leukemia assay” value [13] is given as “no activity”, the “agonist or antagonist action at RARβ” value [10] is given as “agonist” and the Kd [1] is given as about 1.3 µM. The Kd [2] was about 20 µM, the Kd [3] was about 0.15 µM and the “agonist or antagonist action at RARα” value [11] was “antagonist”. The “agonist or antagonist action at RARγ” value [12] was “weak agonist” and the “Receptor Specificity” value [6] was “RARα”.

In the case of `O=C(O)c1ccc2cc(-c3ccc(O)c(C45CC6CC(CC(C6)C4)C5)c3)ccc2c1` [CD437], the “binding to RARs and RXRs” value [14] is listed as “weakly bind”.

For `CC1=C(/C=C/C(C)=C/C=C/C(C)=C/C(=O)Nc2ccc(O)cc2)C(C)(C)CCC1` [Fenretinide, N-[4-hydroxyphenyl]retinamide], the “trans-activation of the nuclear retinoid receptors” value [15] is given as “poorly trans-activates the nuclear retinoid receptors”, the “binding to RARs and RXRs” value [14] is given as “weakly bind” and the “binding to RARs and RXRs” value ([14]; listed as 4-hydroxphenylretinamide) is given as “weakly”. For the same compound, the “concentrations of vitamin A and RBP in the bloodstream” value [16] was “lower the concentrations of both vitamin A and retinol binding protein (RBP)”, the “symptoms of vitamin A insufficiency” value [16] was “impaired dark vision adaptation and epithelial keratosis” and the “binding to RBP and effect on RBP-TTR” value [17] was “binds to RBP, displacing RBP from transthyretin (TTR)”.

For `CCCCCCCOc1cc2c(cc1/C(C)=C/c1ccc(C(=O)O)cc1)C(C)(C)CCS2(=O)=O` [Ro 41-5253], the Kd [1] is given as 2.4 µM, the Kd [2] is given as 3.3 µM and the Kd [3] is given as 0.06 µM. For the same compound, the “Receptor Specificity” value [6] was “RARα”.

For `CCCCCCCOc1cc2c(cc1/C(C)=C/C=C/C(C)=C/C(=O)O)C(C)(C)CCS2(=O)=O` [Ro 46-5471], the Kd [1] is listed as 5.1 µM, the Kd [2] is listed as 0.24 µM and the Kd [3] is listed as 0.027 µM. For the same compound, the “Receptor Specificity” value [6] was “RARα”.

For BMS 189453, the testicular toxicity [18] is given as “caused the atrophy and degeneration of testicular cells”, the “progression of experimental glomerulonephritis” value [19] is given as “reduce the progression of experimental glomerulonephritis” and the “toxicity (eating or drinking, posturing or behavior, weight loss)” value [19] is given as “did not show toxicity”. The “agonist or antagonist action at RARβ” value [10] was “weak RARβ agonist”, the effect on myocardiogenesis [20] was “suppress myocardiogenesis” and the “overt toxicity or hypovitaminosis A” value [21] was “not observed”. The “inflammation and joint erosion” value ([21]; mouse and rat, two models) was “delayed the onset, severity, and progression of inflammation and joint erosion”, the Kd [2] was about 0.02 µM and the Kd [3] was about 0.015 µM. For the same compound, the “gene expression of pro-inflammatory collagenase” value [22] was “suppresses gene expression of pro-inflammatory collagenase”, the “transactivation of the RARs” value [23] was “does not transactivate the RARs” and the AP-1 activity [24] was “represses AP-1 activity”. The overt toxicity ([25]; 2, 10, 50 mg/kg doses) was “not overtly toxic”, the “testicular atrophy after ceasing treatment” value ([25]; 30 days after ceasing treatment, 2-50 mg/kg) was “testicular atrophy was seen at even low doses” and the overt toxicity ([25]; rats, 240 mg/kg daily for 30 days) was “Overt toxicity was observed”. For the same compound, the testicular toxicity ([25]; rats, 2, 10, 50 mg/kg for 1, 3, 7 days) was “caused the atrophy and degeneration of testicular cells”, the “agonist or antagonist action at RARα” value [11] was “antagonist” and the “mammary epithelial cell growth” value [26] was “inhibits mammary epithelial cell growth”. For the same compound, the “agonist or antagonist action at RARγ” value [12] was “antagonist” and the “Receptor Specificity” value [6] was “RARαγ”.
